Measurements: patent US5891434A, “Monoclonal antibodies to the APO-1 antigen” (Centocor, Inc., priority 1995, dated 1999)

Legend:
[1] = test system: membrane blebbing induced by anti-APO-1; assay: kinetics of membrane blebbing induced by anti-APO-1, in the presence of chelators; assay type: cell-based; details: 10 mM
Text: The CCRF-CEM.S2 subclone was obtained by cloning cells under limiting dilution conditions from the CCRF-CEM T cell line at one cell per well in 96-well microtiter plates.

[2] = test system: DNA fragmentation induced by anti-APO-1; assay: endonuclease-mediated DNA fragmentation induced by anti-APO-1, in the presence of Ca2+ channel blockers; assay type: cell-based; details: Ca2+ channel blocker at 50 μM
Description: CCRF-CEM.S2 cells (10^6 per milliliter) were incubated with MAb (1 μg/ml) in culture medium at 37° C. At various times, aliquots of 10^6 cells were removed and DNA was prepared.
SKW6.4 cells were either incubated with the isotype-matched control MAb FII20, FII23 (nonbinding MAb), or anti-APO-1 in microcultures for 24 hours before labeling with [^3 H]-thymidine for a further 4 hours. The data represent the mean of duplicate cultures with a variation of less than 5%. The cells were cultured in RPMI 1640 medium (Gibco, Grand Island, N.Y.), supplemented with 2 mM L-glutamine, streptomycin (100 μg/ml), penicillin (100 U/ml), 20 mM Hepes buffer pH 7.3, and 10% heat-inactivatedfetal bovine serum (Conco Lab-Division, Wiesbaden, FRG). For microcultures 1×10^4 cells per well were cultured in duplicates in flat bottom 96-well microtiter plates (Tecnomara, Fernwald, FRG) (200 μfinal volume per well). After 24 hours, the cells were labeled with 0.5 μCi of [^3 H]-thymidine (Amersham, Braunschweig, FRG)) for 4 hours. Before harvesting, the microcultures were examined by microscopic inspection. For DNA fragmentation 1×10^6 cells were washed with cold phosphate-buffered saline and disrupted with NTE buffer, pH 8 (100 mM NaCl, 10 mM Tris-HCl, 1 mM EDTA) containing 1% SDS and proteinase K (0.2 mg/ml). […]

Molecule | influence on kinetics of membrane blebbing induced by anti-APO-1 (within 30 minutes) [1] | inhibition of endonuclease-mediated DNA fragmentation induced by anti-APO-1 [2]
O=C(O)CN(CCN(CC(=O)O)CC(=O)O)CC(=O)O [EDTA] | not influenced | 
O=C(O)CN(CCOCCOCCN(CC(=O)O)CC(=O)O)CC(=O)O [EGTA] | not influenced | 
COC(=O)C1=C(C)NC(C)=C(C(=O)OC)C1c1ccccc1[N+](=O)[O-] [Nifedipin] |  | not inhibited
Furamicin |  | not inhibited
